Measurements taken from patent publication EP0247971A2, “Novel pharmaceutical compositions comprising and use of cis-6-(4-acetanilido)-8,9-dimethoxy-2-methyl-1,2,3,4,4a,10b-hexahydrobenzo[c][1,6]naphthyridin” (SANDOZ AG, priority 1986, dated 1987).
Read-outs that look alike come from different tables or passages of the source.

Experiments:
Guinea pigs [1] = test: Inhibition of bronchospasm in vivo (Konzett-Rossler preparation); conditions: dosages of the order of 1 mg/kg via jugular vein immediately before PAF, acetylcholine, histamine, serotonin, substance P or leukotriene C4
Description: (§1) Guinea pigs are anaesthetised with pentobarbital (30 mg/kg i.p.) and phenobarbital (100 mg/kg i.p.) and ventilated via a tracheal cannula (10 ml/kg, lHz). Ventilation is monitored either by a pressure transducer measuring air-flow (Konzett-Rossler method), or by a Fleisch flow transducer in line with the inspiratory circuit. When making measurements of flow, coincident pressure changes in the thorax are monitored directly via an intrathoracic trochar, permitting display of differential pressure relative to the trachea. From this information resistance and compliance are calculated at each inspiration. Test substance is, administered via an indwelling cannula within a jugular vein. Blood pressure is monitored at the carotid artery. Test substance is administered immediately before injection of a bronchoconstrictor agent - PAF (56 ng/kg), acetylcholine (32 µg/kg), histamine(10 µg/kg), serotonin (10 µg/kg), substance P ([…]) or leukotriene C4 (5 µg/kg).

rats = test: 30-week oral administration toxicity, rats; assay type: in vivo
Description: (§2) 30-week oral administration of (±)-COMPOUND to rats and dogs indicate no toxicity at dosages up to 272 mg/kg/day in rats and up to 10 mg/kg/day in dogs. (±)-COMPOUND is found to have no embryolethal or teratogenic actions in the rat at dosages up to 300 mg/kg and in the rabbit at dosages up to 30 mg/kg.

[2] = system: subjects exhibiting heart insufficiency; test: Tolerability and safety in subjects exhibiting heart insufficiency; assay type: in vivo, humans
[3] = system: guinea-pig tracheal ring preparations; test: Bronchospasmolytic activity in vitro, isolated guinea-pig trachea; assay type: cell-based; conditions: for IC50: guinea-pig tracheal rings, one series of tests
Description: The trachea is excised from freshly sacrificed guinea-pigs and transected in the transverse plane to give rings of tissue of ca. 2 mm. Individual rings are mounted vertically on stainless steel supports, one of which is fixed at the base of an organ bath, the other being attached to a tension transducer. The rings are bathed in modified Tyrode solution at 37°C and gassed with O2/CO2 (95:5, v/v). Rings prepared in this manner, preloaded with 1 g, generate spontaneous tone and, after a period of equilibration, relax on addition of spasmolytic drugs. Tension can be enhanced by addition of carbachol (10-^6M) or histamine (10-^4M). To ascertain spasmolytic activity, test substances are dissolved in physiological saline and added in increasing quantities to the organ bath at 5 min. intervals to provide a cumulative concentration-effect curve.

dogs = test: 30-week oral administration toxicity, dogs; assay type: in vivo
Description: as §2

healthy trial volunteers = test: Tolerability and safety in healthy trial volunteers; assay type: in vivo, humans
rat = test: Embryolethal or teratogenic actions, rat; assay type: in vivo
Description: as §2

rabbit = test: Embryolethal or teratogenic actions, rabbit; assay type: in vivo
Description: as §2

Guinea-pigs [4] = test: Reversal of bombesin-induced bronchospasm in vivo; conditions: i.v. at the height of bronchospasm induced by bombesin (ca. 500 ng/kg); one series of tests; of the order of
Description: as §1
Guinea-pigs are prepared for measurement of resistance and compliance as under lb^l above. Intravenous injection of bombes in (ca. 500 ng/kg) as a bolus, induces increased airways resistance which is sustained over a period of several minutes. Capacity of test-substance to reverse response when administered i.v. at the height of bombesin-induced bronchospasm serves as a measure of efficacy in reversing established bronchospasm.

Guinea-pigs [5] = test: Suppression of airways hyperreactivity, PAF-treated animals; assay type: in vivo
Description: Guinea-pigs are anaesthetised and prepared for recording of lung function as described under example lb^l above. Intravenous injection of low dose bombesin (240 ng/kg) establishes airways sensitivity to spasmogens. Following infusion of PAF over lhr. […] Induction of airways hyperreactivity by PAF is a platelet-dependent phenomenon and development of. airways hyperreactivity in this model in paralleled by observed accumulation of platelets within the thorax.

Conscious guinea-pigs = test: Inhibition of acetylcholine-mist bronchoconstriction following pulmonary administration; assay type: in vivo; conditions: inhalation of mist 10 mins. prior to 0.3% mist of acetylcholine
Description: Conscious guinea-pigs are subjected to inhalation of COMPOUND or placebo (vehicle) 10 mins. prior to explosure to a 0.3% mist of acetylcholine. COMPOUND is administered as a mist generated from COMPOUND in aqueous solution at concentrations of from 1 mg/ml to 0.001 mg/ml, using a jet nebuliser. Prolongation of time prior to collapse in treated groups as compared with placebo groups is taken as a measure of bronchodilator efficacy.

[6] = system: guinea-pig peritoneal cavity; test: Influence on eosinophil accumulation in the peritoneal cavity in vivo
Description: Effect of test-substance is conveniently determined by measurement of influence on PAF-induced eosinophil accumulation in the guinea-pig peritoneal cavity in vivo. In the guinea-pig, there is a substantial (up to 40%) resident population of eosinophils in the peritoneal cavity and eosinophil accumulation in the peritoneal cavity relative to control animals ca. 24 - 48 hrs. following injection of PAF i.p. at dosages of ca. 10µg/kg.
To esablish eosinophil accumulation, test animals receive 10µg/kg PAF i.p., 2 days prior to sacrifice. Smears from the peritoneal cavity are prepared employing Leishman's Stain after fixation with 95% methanol. At least 500 white cells are differentiated for each estimation. Test substance is administered s.c. via a minipump for four days prior to sacrifice.

Guinea pigs [7] = test: Suppression of airways hyperreactivity, sensitised animals (immune complexes); assay type: in vivo
Description: Guinea pigs are anaesthetised and airways resistance and compliance recorded as described under example lb^l above. […] Platelets are isolated and labelled with ^lllindium prior to intravenous infusion. Platelet accumulation is monitored by external crystal detectors [c.f. Morley et al. […] Allergic reaction is initiated by i.v. injection of preformed immune complexes (bovine y-globulin/ anti-bovine y-globulin), using a dose that is scarcely sufficient to induce bronchospasm at the first injection. By repeating the dose at regular (10 min.) intervals, bronchospasm of progressively increasing amplitude is evidenced. This effect is paralleled by an incremental retention of platelets within the airway vasculature. Following the last dose of immune complexes, the dose-effect relationship to histamine is re-defined. In animals so treated, induction of airways hyperreactivity is consistently observed.

[8] = intravenous dosages of up to 100 mg by perfusion over 10 mins.

COc1cc2c(cc1OC)[C@@H]1CN(C)CC[C@@H]1N=C2c1ccc(NC(C)=O)cc1 (racemic) [(±)-COMPOUND, cis-6-(4-acetanilido)-8,9-dimethoxy-2-methyl-1,2,3,4,4a,10b-hexahydrobenzo[c][1,6]naphthyridin]
constrictor response to bronchoconstrictor agents (Guinea pigs [1]): strongly inhibits | dosages with no toxicity (rats): up to 272 mg/kg/day | arterial pressure [2, 8]: light fall | heart frequency [2, 8]: increase | intravenous dosages well tolerated ([2]; perfusion over 10 mins., subjects exhibiting heart insufficiency): up to 100 mg | systolic blood-pressure ([2]; placebo controlled trials, after 60 mins.): light increase | heart frequency ([2]; placebo controlled trials, oral): no relevant change | oral dosages with no significant side effects, well tolerated ([2]; subjects exhibiting heart insufficiency, oral): up to 600 mg | relaxant action on tracheal rings from animals desensitised to β2-agonist therapy ([3]; animals with prolonged exposure to high-dose isoprenaline in vivo): not influenced | IC50 ([3]; carbachol (10-^6M), read-out: IC50 values for inhibition of contraction due to carbachol): 5.8 µM | IC50 ([3]; histamine (10-^4M), read-out: IC50 values for inhibition of contraction due to histamine): 1.7 µM | IC50 ([3]; spontaneous tone, read-out: IC50 values for inhibition of spontaneous tone): 3.2 µM | relaxant action in the presence of propanolol ([3]; propanolol (1 uM)): undiminished | dosages with no toxicity (dogs): up to 10 mg/kg/day | tolerability (healthy trial volunteers; 600 mg once daily for 3 days (6 subjects)): well tolerated | single oral dosages with no occurrence of side effects or relevant changes in laboratory parameters (healthy trial volunteers; healthy trial volunteers (27 subjects)): up to 800 mg | dosages with no embryolethal or teratogenic actions (rat): up to 300 mg/kg | dosages with no embryolethal or teratogenic actions (rabbit): up to 30 mg/kg | ID50 values, abrogation of bombesin-induced bronchospasm (Guinea-pigs [4]): 0.08 to 0.48 mg/kg | thoracic platelet accumulation in response to PAF (Guinea-pigs [5]; 1 mg/kg bolus and infusion at 1 mg/kg/hr i.v.): inhibited | dosage giving suppression of airways hyperreactivity induction (Guinea-pigs [5]; advance administration i.v., ca., PAF infusion 600 ng/kg, bombesin 240 ng/kg): ≥ 0.1 mg/kg | ID50, suppression of airways hyperreactivity induction (Guinea-pigs [5]; i.v., one series of tests, of the order of): ~1 mg/kg | amount introduced into the exposure chamber giving detectable protection against bronchospasm (Conscious guinea-pigs): ≥ 2 µg | PAF-induced eosinophil accumulation ([6]; of the order of 2 mg/kg/day s.c. via minipump for four days, animals receiving 10µg/kg PAF i.p.): inhibition of eosinophil accumulation | resident eosinophil population ([6]; of the order of 10 mg/kg/day s.c. via minipump for four days, non-PAF-treated animals, vs untreated controls): decrease | dosage giving suppression of induced airways resistance (Guinea pigs [7]; advance administration i.v., ca., compared with untreated controls): ≥ 1 mg/kg | effective dose, inhibition of airways hyperreactivity (Guinea pigs [7]; one test series): 0.35 mg/kg
